Results taken from patent US10570099B2, “Salts of an epidermal growth factor receptor kinase inhibitor” (Celgene CAR LLC, priority 2012, dated 2020).
Counter-ions that a name gives are not always drawn.

What was measured:
[1] = Dog PK Study 1 (cross-over, fasted); assay type: in vivo, beagle dogs; details: male, beagle, dog, po, plasma compound 1, fasted dogs (n = 3), capsule orally 24.5 mg/kg
Protocol: Compound 1 free base and compound 2, as the Form I monohydrobromide (HBr) salt, were evaluated in a cross-over dog PK study. Compound 1 free base capsule consisted of compound 1 free base in Vitamin E TPGS and PEG 400 filled into a capsule. The Form I hydrobromide salt capsule consisted of Form I HBr alone filled into a capsule.
Compound 1 free base capsule and Form I HBr capsule were dosed orally at 28.5 and 24.5 mg/kg (as active) QD, respectively, to three fasted male non-naïve beagle dogs (body weight range: 10.1-10.8 kg) with a 5-day washout period. Approximately 5 mL of tap water was orally administered to encourage swallowing and ensure delivery of capsules into the stomach. Plasma samples were collected at pre-dose and 0.5, 1, 2, 4, 6, 8, 12 and 24 hours post dose. The plasma concentrations of compound 1 were determined by a liquid chromatography-tandem mass spectrometry (LC/MS/MS) method.

[2] = Dog PK Study 2 (gastric pH adjustment, food effect); assay type: in vivo, beagle dogs; details: 30 mg/kg, plasma compound 1, dogs (n = 3), capsule orally 30 mg/kg, mean (% CV)
Protocol: Compound 1 free base and compound 2, as the Form I monohydrobromide (HBr) salt, were evaluated in a cross-over dog PK study in which male dogs were pre-treated with either pentagastrin (to decrease gastric pH) or famotidine (to increase gastric pH) prior to oral dosing to control gastric pH. In addition, the effect of food on the systemic exposure to compound 1 was also evaluated in dogs receiving Form I HBr with pentagastrin pre-treatment. Compound 1 free base capsule consisted of compound 1 free base in Vitamin E TPGS and PEG 400 filled into a capsule. The Form I hydrobromide salt capsule consisted of Form I HBr alone filled into a capsule.
There was a minimum 6-day washout between dosing. On the day of dosing under fed condition, dogs were given 60 gram of a high fat diet (Harlan Teklad 2027C) and allowed to consume all of the food within 15-20 minutes. The animals were given a 10-minute rest period and then the capsule doses were administered. Plasma samples were collected at pre-dose and 0.5, 1, 2, 4, 6, 8, 12 and 24 hours post dose.

[3] = 1 week stability study (XRPD and HPLC); assay type: physicochemical
Protocol: (§1) Resulting solids were analysed by XRPD and HPLC to establish if any changes had occurred.
as §1
The resulting solids were analysed by XRPD and HPLC to establish if any changes had occurred.

[4] = Dynamic vapour sorption (DVS); assay type: physicochemical
Protocol: For dynamic vapour sorption (DVS), approximately 10-20 mg of sample was placed into a wire mesh vapour sorption balance pan and loaded into a DVS-1 dynamic vapour sorption balance by Surface Measurement Systems. The sample was subjected to a ramping profile from 20-90% relative humidity (RH) at 10% increments, maintaining the sample at each step until a stable weight had been achieved (99.5% step completion). After completion of the sorption cycle, the sample was dried using the same procedure, but all the way down to 0% RH and finally taken back to the starting point of 20% RH. The weight change during the sorption/desorption cycles were plotted, allowing for the hygroscopic nature of the sample to be determined.

[5] = Thermodynamic solubility in media of various pH (HPLC; XRPD of excess solids); details: for Thermodynamic Solubility: ca. 24 hours
Protocol: The remaining solids were also analysed by XRPD analysis to establish if any changes in the solid form occurred.
The remaining solids were also analysed by XRPD analysis to establish if any changes in the solid form occurred. For the buffer solutions, KCl/HCl was used for pH 1 and citrate/phosphate combinations for pH 3, 4.5 and 6.6.
The remaining solids were also analysed by XRPD analysis to establish if any changes in the solid form occurred. For the buffer solutions, KCl/HCl was used for pH 1 and citric acid/sodium citrate combinations for pH 3, 4.5 and 6.2.
The solids were then removed by filtration and tested by XRPD analysis. The mother liquors were analyzed by HPLC to determine API solubility.
For the buffer solutions, KCl/HCl was used for pH 1 and citrate/phosphate combinations for pH 3, 4.5 and 6.6 (10 mM). The pH of the solutions was also measured prior to HPLC analysis.

[6] = 1 week stability of primary screen salts at 40° C./75% RH and 80° C. (open vials, XRPD); assay type: physicochemical
Protocol: (open vials). TGA was carried out after the stability studies for samples containing sufficient material.

[7] = Solvent solubility screen of amorphous hydrobromide salt; assay type: physicochemical
Protocol: Approximately 10 mg of amorphous hydrobromide salt was placed in each of 24 vials and 5 volume aliquots of the appropriate solvent system was added to the vial. Between each addition, the mixture was checked for dissolution. This procedure was continued until dissolution was observed or until 100 volumes of solvent had been added.

[8] = 25° C., closed container, 7 day
[9] = 80° C., closed container, 7 day

SMILES: C=CC(=O)Nc1cccc(Nc2nc(Nc3ccc(N4CCN(C(C)=O)CC4)cc3OC)ncc2C(F)(F)F)c1 [Compound 2 (Form I Hydrobromide)]
- half-life ([1]; mean): 2.4 h
- Cmax ([1]; mean (% CV)): 1420 ng/mL
- AUC(0-t) ([1]; mean (% CV), read-out: AUC0-24): 5260 ng·h/mL
- Tmax ([1]; median): 2 h
- AUC(0-t) ([2]; male, beagle, dog, plasma, po, Pentagastrin, fed, read-out: AUC0-24): 13900 ng·h/mL
- Cmax ([2]; male, beagle, dog, plasma, po, Pentagastrin, fed, read-out: Cmax): 3970 ng/mL
- AUC0-24 ([2]; Famotidine, fasted): 4010 (54%) ng · h/mL
- Cmax ([2]; Famotidine, fasted): 1180 (20%) ng/mL
- AUC0-24 ([2]; Pentagastrin, fasted): 9450 (31%) ng · h/mL
- Cmax ([2]; Pentagastrin, fasted): 2860 (39%) ng/mL

SMILES: Br.C=CC(=O)Nc1cccc(Nc2nc(Nc3ccc(N4CCN(C(C)=O)CC4)cc3OC)ncc2C(F)(F)F)c1 [Form III hydrobromide salt]
- HPLC purity after storage [3, 8]: 98.9%
- XRPD after storage [3, 8]: Form I
- HPLC purity after storage ([3]; 25° C., open container, 7 day): 98.2%
- XRPD after storage ([3]; 25° C., open container, 7 day): Form I
- HPLC purity after storage ([3]; 40° C./75% RH, closed (crimped) vial, 1 week): 99.0%
- XRPD after storage ([3]; 40° C./75% RH, closed (crimped) vial, 1 week, listed as Form III): Form I
- HPLC purity after storage ([3]; 40° C./75% RH, open vial, 1 week): 98.3%
- XRPD after storage ([3]; 40° C./75% RH, open vial, 1 week, listed as Form III): Form I
- HPLC purity after storage [3, 9]: 99.0%
- XRPD after storage [3, 9]: Form I
- HPLC purity after storage ([3]; 80° C., open vial, 1 week, listed as Form III): 98.7%
- hygroscopicity (DVS) [4]: slightly hygroscopic
- Moisture uptake, Cycle 3 Sorption ([4]; 0-20% RH): ca. 0.535%
- mass uptake, Cycle 1 Sorption ([4]; 20-90% RH): ca. 1.045%
- mass decrease, Cycle 2 Desorption ([4]; 90-0% RH): ca. 1.983%
- post DVS XRPD analysis (polymorphic form) ([4]; after DVS cycles, listed as Form III): converted to Form I hydrobromide salt
- pH prior to analysis ([5]; Buffer pH 1): 0.95
- pH prior to analysis ([5]; Buffer pH 3): 1.53
- pH prior to analysis ([5]; Buffer pH 4.5): 1.79
- pH prior to analysis ([5]; Buffer pH 6.6): 1.79
- XRPD of excess solids ([5]; pH 1.0, KCl/HCl): remained predominantly consistent with the Form III hydrobromide
- Thermodynamic Solubility ([5]; pH 1.0, KCl/HCl buffer, listed as Form III): 13880 µg/mL
- XRPD of excess solids ([5]; pH 3.0, Citrate/Phosphate): became amorphous
- XRPD of excess solids ([5]; pH 4.5, Citrate/Phosphate): converted to a freebase hydrate form
- Thermodynamic Solubility ([5]; pH 4.5, Citrate/Phosphate): 280 µg/mL
- XRPD of excess solids ([5]; pH 6.6, Citrate/Phosphate): converted to a freebase hydrate form

SMILES: C=CC(=O)Nc1cccc(Nc2nc(Nc3ccc(N4CCN(C(C)=O)CC4)cc3OC)ncc2C(F)(F)F)c1.O=C(O)/C=C\C(=O)O [Maleate Form II]
- Stability 40° C./75% RH (open conditions) [6]: No form change,
- Stability 80° C. (open conditions) [6]: No form change,

SMILES: C=CC(=O)Nc1cccc(Nc2nc(Nc3ccc(N4CCN(C(C)=O)CC4)cc3OC)ncc2C(F)(F)F)c1.O=C(O)C(=O)O [Oxalate Form II]
- Stability 40° C./75% RH (open conditions) [6]: No form change,
- Stability 80° C. (open conditions) [6]: Amorphous brown

SMILES: C=CC(=O)Nc1cccc(Nc2nc(Nc3ccc(N4CCN(C(C)=O)CC4)cc3OC)ncc2C(F)(F)F)c1.Cc1ccc(S(=O)(=O)O)cc1.Cc1ccc(S(=O)(=O)O)cc1 [Tosylate (2 equiv.) Form I]
- Stability 40° C./75% RH (open conditions) [6]: No form change,
- Stability 80° C. (open conditions) [6]: No form change,

SMILES: C=CC(=O)Nc1cccc(Nc2nc(Nc3ccc(N4CCN(C(C)=O)CC4)cc3OC)ncc2C(F)(F)F)c1.O=S(=O)(O)c1ccc2ccccc2c1
- Stability 40° C./75% RH (open conditions) [6]: No form change, small
- Stability 80° C. (open conditions) [6]: No form change,

SMILES: C=CC(=O)Nc1cccc(Nc2nc(Nc3ccc(N4CCN(C(C)=O)CC4)cc3OC)ncc2C(F)(F)F)c1.O=C(O)/C=C\C(=O)O [Maleate Form I]
- Stability 40° C./75% RH (open conditions) [6]: No form change,
- Stability 80° C. (open conditions) [6]: No form change,

SMILES: C=CC(=O)Nc1cccc(Nc2nc(Nc3ccc(N4CCN(C(C)=O)CC4)cc3OC)ncc2C(F)(F)F)c1.O=S(=O)(O)c1ccc2ccccc2c1.O=S(=O)(O)c1ccc2ccccc2c1 [Naphthalene-2-sulfonic acid (2 eq.) Form II]
- Stability 40° C./75% RH (open conditions) [6]: No form change,

SMILES: C=CC(=O)Nc1cccc(Nc2nc(Nc3ccc(N4CCN(C(C)=O)CC4)cc3OC)ncc2C(F)(F)F)c1.Cc1ccc(S(=O)(=O)O)cc1 [Tosylate (1 equiv.) Form II]
- Stability 40° C./75% RH (open conditions) [6]: Gum formed
- Stability 80° C. (open conditions) [6]: Possible form change,

SMILES: C=CC(=O)Nc1cccc(Nc2nc(Nc3ccc(N4CCN(C(C)=O)CC4)cc3OC)ncc2C(F)(F)F)c1.CC1(C)C2CCC1(CS(=O)(=O)O)C(=O)C2 [Camphor-10-sulfonic acid (1 eq.) Form I]
- Stability 40° C./75% RH (open conditions) [6]: No form change, slight
- Stability 80° C. (open conditions) [6]: No form change,

SMILES: C=CC(=O)Nc1cccc(Nc2nc(Nc3ccc(N4CCN(C(C)=O)CC4)cc3OC)ncc2C(F)(F)F)c1.CS(=O)(=O)O.CS(=O)(=O)O [Mesylate Form I]
- Stability 40° C./75% RH (open conditions) [6]: Gum formed
- Stability 80° C. (open conditions) [6]: Amorphous solid

SMILES: C=CC(=O)Nc1cccc(Nc2nc(Nc3ccc(N4CCN(C(C)=O)CC4)cc3OC)ncc2C(F)(F)F)c1.O=S(=O)(O)c1ccccc1 [Besylate (1 equiv.) Form I]
- Stability 40° C./75% RH (open conditions) [6]: No form change,
- Stability 80° C. (open conditions) [6]: No form change,

SMILES: C=CC(=O)Nc1cccc(Nc2nc(Nc3ccc(N4CCN(C(C)=O)CC4)cc3OC)ncc2C(F)(F)F)c1.Cc1ccc(S(=O)(=O)O)cc1.Cc1ccc(S(=O)(=O)O)cc1 [Tosylate (2 equiv.) Form II]
- Stability 40° C./75% RH (open conditions) [6]: Gum formed
- Stability 80° C. (open conditions) [6]: Possible form change,

SMILES: Br.C=CC(=O)Nc1cccc(Nc2nc(Nc3ccc(N4CCN(C(C)=O)CC4)cc3OC)ncc2C(F)(F)F)c1 [amorphous hydrobromide salt]
- Approximate Solubility ([7]; 1,4-Dioxane): <10000 µg/mL
- Approximate Solubility ([7]; 1-Butanol): <10000 µg/mL
- Approximate Solubility ([7]; 2-Propanol): <10000 µg/mL
- Approximate Solubility ([7]; 3-Methyl-1-butanol): <10000 µg/mL
- Approximate Solubility ([7]; Acetone): <10000 µg/mL
- Approximate Solubility ([7]; Acetone:Water (10%)): <10000 µg/mL
- Approximate Solubility ([7]; Acetonitrile): <10000 µg/mL
- Approximate Solubility ([7]; Cyclohexane): <10000 µg/mL
- Approximate Solubility ([7]; Dichloromethane): <10000 µg/mL
- Approximate Solubility ([7]; Diisopropyl ether): <10000 µg/mL
- Approximate Solubility ([7]; Dimethylformamide): ca. 67 mg/mL
- Approximate Solubility ([7]; Dimethylsulfoxide): ca. 50 mg/mL
- Approximate Solubility ([7]; Ethanol): <10000 µg/mL
- Approximate Solubility ([7]; Ethyl acetate): <10000 µg/mL
- Approximate Solubility ([7]; Heptane): <10000 µg/mL
- Approximate Solubility ([7]; Isopropyl acetate): <10000 µg/mL
- Approximate Solubility ([7]; Methyl isobutyl ketone): <10000 µg/mL
- Approximate Solubility ([7]; Methylethyl ketone): <10000 µg/mL
- Approximate Solubility ([7]; N-Methyl-2-pyrrolidone): ca. 20 mg/mL
- Approximate Solubility ([7]; Nitromethane): <10000 µg/mL
- Approximate Solubility ([7]; Tetrahydrofuran): <10000 µg/mL
- Approximate Solubility ([7]; Toluene): <10000 µg/mL
- Approximate Solubility ([7]; Water): <10000 µg/mL
- Approximate Solubility ([7]; tert-Butylmethyl ether): <10000 µg/mL
